Measurements reported in patent US8658390B2, “Method for detecting muscle degenerative diseases, and method for determining therapeutic efficacy on the diseases” (Osaka Bioscience Institute, priority 2009, dated 2014).

Legend:
mdx mice [1] = experiment: Forefoot grip strength of mdx mice (symptom evaluation); assay type: in vivo, mouse; settings: 4 weeks old, oral, 30 mg/kg for 5 days, solvent group showed no significant change (FIG. 1, right)
Experimental: (§1) Muscular dystrophy mouse: mdx (C57Bl/10 ScSn; available from JAX Laboratories)
(§2) A solvent (0.5% methylcellulose solution) or test compound 1 was orally administered to mdx mice, 4 weeks old, for 5 days at a dose of 30 mg/kg. Using a metabolism cage for mice, urine was collected over the course of about 12 hours before the administration of test compound 1 and 5 days after the administration. For comparison, urine was also collected from wild-type mice of the same weeks old and the same lineage used as a control. The creatinine concentration in urine was measured using a measurement kit (L-type Wako CRE M, Wako Pure Chemical Industries, Ltd.).
For the symptom evaluation of the mdx mice, the forefoot grip strength was measured using a grip dynamometer for mice (traction meter; BrainSienceldea). Each measurement was made in 2 min, and the mean value of five trials was calculated.

mdx mice [2] = experiment: Urine Tetranor-PGDM concentration in mdx mice (HPLC-MS/MS); assay type: in vivo, mouse; settings: oral, 30 mg/kg for 5 days (FIG. 1, left)
Experimental: as §1
as §2, with “Ltd.). […]” for “Ltd.).”
The pretreated urine sample was used for the measurement of Tetranor-PGDM levels. […] MRM (Multiple Reaction Monitoring) was used for quantification. In this technique, only the true parent ions are specifically selected from the mass of the parent ions (precursor ion) and of the fragment ions resulting from CID (collision-induced dissociation), and the parent ions are accurately quantified from the area of the selected ions. […] The fragment ions are then isolated in a second mass analyzer (Q3), and detected at the detector provided downstream. […] Area calculations were performed for the peaks originating from the Tetranor-PGDM in the resulting mass chromatogram, and each peak was quantified from the standard curve created from the standard sample. […]

CXMDJ [3] = experiment: Urine Tetranor-PGDM concentration in muscular dystrophy dog CXMDJ (HPLC-MS/MS); assay type: in vivo
Description: Muscular dystrophy dog: CXMDJ (CXMDJ; available from National Center of Neurology and Psychiatry)
CXMDJ was orally administered with a solvent (0.5% methylcellulose solution) or test compound 2 for about 1 year, followed by the administration of test compound 2 for the solvent-administrated dog, and the solvent for the test compound 2-administered dog. Urine was collected before switching from the solvent to test compound 2, and from test compound 2 to the solvent. Urine was collected over time after the administered solution was switched. For comparison, urine was also collected from normal beagles used as a control.
The urine (200 μL) collected from the mice or dogs was mixed with 5 ng of deuterium-labeled Tetranor-PGDM-d6 (Cayman Chemical) used as internal standard. The volume was adjusted to 2 mL with purified water, and pH was adjusted to 3. The urine was then injected to a Sep-Pak Vac C18 cartridge (Waters) equilibrated with acetonitrile (5 mL) and purified water (5 mL). The sample was washed with a 10% acetonitrile solution (5 mL) prepared using purified water, and with hexane (10 mL), and eluted with ethyl acetate (5 mL) before being dried under a stream of nitrogen. The residue was dissolved in a 10% acetonitrile solution (100 μL) prepared using purified water, and used as a measurement sample.
The pretreated urine sample was used for the measurement of Tetranor-PGDM levels. […] MRM (Multiple Reaction Monitoring) was used for quantification. In this technique, only the true parent ions are specifically selected from the mass of the parent ions (precursor ion) and of the fragment ions resulting from CID (collision-induced dissociation), and the parent ions are accurately quantified from the area of the selected ions. […] The fragment ions are then isolated in a second mass analyzer (Q3), and detected at the detector provided downstream. Tetranor-PGDM (mass number 328) was detected by using any of the ions with a m/z (mass number charge) of 155, 143, and 109 produced by further decomposing the product ions with a m/z of 327 by CID (collision-induced dissociation). The internal standard Tetranor-PGDM-d6 (mass number 334) was detected by using any of the product ions with a m/z (mass number÷charge) of 161, 149, and 109 produced by further decomposing the product ions with a m/z of 333 by CID (collision-induced dissociation). […] Area calculations were performed for the peaks originating from the Tetranor-PGDM in the resulting mass chromatogram, and each peak was quantified from the standard curve created from the standard sample. In the quantification, correction was made by using the area value of the peak originating from the Tetranor-PGDM-d6 introduced as the internal standard for the correction of the extraction efficiency and ionization efficiency in each analysis.

CXMDJ [4] = experiment: Symptom scores of muscular dystrophy dog CXMDJ; assay type: in vivo
[5] = CXMDJ switched to solvent after about 1 year of oral test compound 2 (FIG. 2, left)
[6] = CXMDJ switched to the inhibitor after about 1 year of oral solvent (FIG. 2, right)

## c1ccc(C(OC2CCN(CCCc3nnn[nH]3)CC2)c2ccccc2)cc1 [Test compound 1, 4-benzhydryloxy-1-{3-(1H-tetrazol-5-yl)-propyl}piperidine]
Mdx mice [1]
  forefoot grip strength: significantly increased
Mdx mice [2]
  Tetranor-PGDM concentration in urine: significantly lower

## CON(C)C(=O)c1[nH]c(C)c(-c2nc3ccc(C(=O)c4ccccc4)cc3[nH]2)c1C [Test compound 2]
CXMDJ [3]; CXMDJ dog orally administered with test compound 2, compared with CXMDJ dog (Table 1)
  Tetranor-PGDM concentration in urine: decreased
CXMDJ [3]; [5]
  urine Tetranor-PGDM concentration: increased
CXMDJ [3]; [6]
  urine Tetranor-PGDM concentration: decreased
CXMDJ [3]; urine of HPGDS inhibitor-administered CXMDJ dog (CXMDJ dog without inhibitor 27.8)
  Tetranor-PGDM concentration: 17.9 ng/mL
CXMDJ [4]; [5]
  symptom scores: worsened
CXMDJ [4]; [6]
  symptom scores: improved
